Measured values as given in patent US20120128580A1, “PRESELECTION OF SUBJECTS FOR THERAPEUTIC TREATMENT WITH ELESCLOMOL BASED ON HYPOXIC STATUS” (SYNTA PHARMACEUTICALS CORP., priority 2010, published 2012).

What was measured:
Assay type in all cases: in vivo, human
[1] = test system: non-small cell lung carcinoma (NSCLC); assay: Phase II study, elesclomol with paclitaxel and carboplatin versus paclitaxel and carboplatin alone; conditions: previously untreated NSCLC Stage IIIB or IV, i.v. every three weeks for six cycles
Description: For example, a Phase II study was performed to test elesclomol in combination with paclitaxel and carboplatin, as compared to paclitaxel and carboplatin alone, in 86 subjects with previously untreated non-small cell lung carcinoma (NSCLC) and non-resectable, locally advanced, or metastatic disease (Stage IIIB or IV) were randomized 1:1 into treatment groups for treatment with carboplatnin plus elesclomol (CP+E) or carboplatnin alone (CP). Subjects were dosed intravenously with 200 mg/m^2 of paclitaxel and AUC=6 of carboplatnin either with or without 266 mg/m^2 of elesclomol every three weeks for six cycles, likely resulting in complete clearance of elesclomol between doses.

[2] = test system: relapsed or refractory acute myeloid leukemia (AML); assay: Trial of elesclomol sodium in relapsed or refractory AML with low LDH; conditions: baseline serum LDH ≤0.8 ULN, elesclomol sodium once-weekly, starting dose 200 mg/m^2
Description: Subjects are identified as having one of relapsed or refractory acute myeloid leukemia (AML). A subject is selected as being candidate for treatment with elesclomol based on appropriate inclusion or exclusion criteria. Routine assessments are made prior to treatment to characterize the disease state of the subject including, but not limited to, imaging studies, hematological studies, and physical examination. Additionally, coded serum sample from the subject is tested to determine the LDH level.
This trial is expected to be sufficiently powered with the enrollment of 36 patients with relapsed or refractory AML and total baseline serum LDH level less-than or equal to 0.8 upper limit of normal (ULN). Patients are treated with elesclomol sodium on a once-weekly schedule at a starting dose of 200 mg/m^2, with dose escalation planned based on safety and tolerability. The primary endpoints are to characterize the safety and tolerability of elesclomol sodium and to determine the pharmacokinetics of elesclomol and its metabolites in this patient population. Secondary endpoints include assessing the activity of elesclomol as a monotherapy in the treatment of AML.

[3] = test system: solid tumors; assay: Trial of elesclomol in subjects with solid tumors stratified by level of hypoxia; conditions: elesclomol alone or in combination
Description: Subjects diagnosed with solid tumors are recruited for a study to determine the efficacy of elesclomol in the treatment of solid tumors, preferably tumors from the same tissue origin, e.g., breast, prostate, lung, liver, brain, colorectal, etc. Inclusion criteria include the presence of a solid tumor. Exclusion criteria include the presence of an ischemia related disease or disorder including, e.g., ischemic heart or vascular disease, poor circulation, diabetes, macular degeneration, recent stroke, or other ischemic events or conditions; or surgery planned during the duration of the trial. […]
All subjects are treated with elesclomol, either alone or in combination with one or more additional chemotherapeutic agents. […] Subjects are monitored for response to the agent throughout the trial, at the end of the trial, and at regular intervals after the conclusion of the trial using routine methods including, but not limited to, e.g., imaging, hematology, and physical examination. […] Preferably, the subjects continue to be monitored for outcomes beyond the formal end of the trial. […]
An analysis of the samples collected from subjects prior to and optionally during treatment is performed to determine the efficacy of elesclomol for the treatment of cancer based on the level of hypoxia of the tumor based on markers assessed prior to and optionally during the treatment of the subjects. […]

## CN(NC(=O)CC(=O)NN(C)C(=S)c1ccccc1)C(=S)c1ccccc1 [Elesclomol, N-malonyl-bis(N′-methyl-N′-thiobenzoylhydrazide)]
[1]; High LDH
  Median Progression Free Survival: 2.8 months
[1]; Low LDH
  Median Progression Free Survival: 4.6 months
[2]
  response of subjects with low levels of hypoxia versus historical control populations: respond better
[3]
  response of subjects with a low level of hypoxia compared to a high level of hypoxia: better response
